In PubChem BioAssay (NCI):
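How tested: cells in 96-well plates exposed to compound for 48 hours at five concentrations. The concentration for 50% growth inhibition is given as GI50. TGI is the concentration that stops growth completely.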

Assays:
Experiment in all cases: growth of human tumour cells (NCI), 48 h
HCT-15 colon = tested on: HCT-15 colon
ACHN renal = tested on: ACHN renal
HOP-92 NSCLC = tested on: HOP-92 NSCLC
SNB-75 CNS = tested on: SNB-75 CNS
786-0 renal = tested on: 786-0 renal
HOP-62 NSCLC = tested on: HOP-62 NSCLC
SN12C renal = tested on: SN12C renal
SK-MEL-2 melanoma = tested on: SK-MEL-2 melanoma
PC-3 prostate = tested on: PC-3 prostate
BT-549 breast = tested on: BT-549 breast

Compound	TGI (HCT-15 colon)	TGI (ACHN renal)	TGI (HOP-92 NSCLC)	TGI (SNB-75 CNS)	TGI (786-0 renal)	TGI (HOP-62 NSCLC)	TGI (SN12C renal)	TGI (SK-MEL-2 melanoma)	GI50 (PC-3 prostate)	TGI (PC-3 prostate)	GI50 (HCT-15 colon)	GI50 (ACHN renal)	GI50 (HOP-92 NSCLC)	GI50 (SNB-75 CNS)	GI50 (786-0 renal)	GI50 (SK-MEL-2 melanoma)	GI50 (HOP-62 NSCLC)	GI50 (SN12C renal)	GI50 (BT-549 breast)	TGI (BT-549 breast)
CCOC(=O)C1(Cc2ccc3ccccc3c2)CCCCCN1 (centres undefined)	41.4 µM	> 100 µM	55.4 µM	30.2 µM	34.2 µM	> 100 µM	> 100 µM	–	–	–	–	–	–	–	–	–	–	–	–	–
Cc1cccc(N=C2NC(=O)C(CC(=O)Nc3ccc(Cl)cc3C)S2)c1 (centres undefined)	> 100 µM	> 100 µM	–	> 100 µM	> 100 µM	> 100 µM	> 100 µM	> 100 µM	–	–	–	–	–	–	–	–	–	–	–	–
CC12C(=O)N(CCN)C(=O)C1C1c3ccccc3C2c2ccccc21 (centres undefined)	> 100 µM	> 100 µM	98.4 µM	> 100 µM	> 100 µM	> 100 µM	> 100 µM	> 100 µM	–	–	–	–	–	–	–	–	–	–	–	–
C=C=[CH][Sn]([c]1ccccc1)([c]1ccccc1)[c]1ccccc1	2.9 µM	3.16 µM	2.03 µM	4.72 µM	2.92 µM	5.26 µM	3.19 µM	3.71 µM	1.46 µM	3.68 µM	1.4 µM	1.66 µM	0.593 µM	1.31 µM	1.51 µM	1.84 µM	2.45 µM	1.68 µM	–	–
CCOC(=O)N1CCC(=O)C[C@@H]1C/C=C/P1(=O)O[C@H](c2ccccc2)C(C)N1C(C)C (some centres undefined)	> 100 µM	> 100 µM	> 100 µM	> 100 µM	> 100 µM	–	> 100 µM	> 100 µM	–	–	–	–	–	–	–	–	–	–	–	–
O=C(/C=C/c1ccc(Cl)c(Cl)c1)C1CCC(Cl)CC1 (centres undefined)	35.1 µM	32 µM	86.6 µM	44.3 µM	30.6 µM	> 100 µM	32.7 µM	–	–	–	–	–	–	–	–	–	–	–	–	–
Nn1c(N=Nc2c(O)[nH]c3ccccc23)n[nH]c1=S	> 100 µM	> 100 µM	> 100 µM	–	> 100 µM	> 100 µM	> 100 µM	> 100 µM	–	–	–	–	–	–	–	–	–	–	–	–
CON	> 100 µM	> 100 µM	> 100 µM	> 100 µM	> 100 µM	> 100 µM	> 100 µM	> 100 µM	–	–	> 100 µM	> 100 µM	> 100 µM	> 100 µM	> 100 µM	> 100 µM	> 100 µM	> 100 µM	> 100 µM	> 100 µM
COC(=O)C1=Cc2c(OC)cc(OC)c(OC)c2[C@H](c2cc(OC)c(OC)cc2OC)C1C(=O)OC (some centres undefined)	> 100 µM	> 100 µM	> 100 µM	> 100 µM	> 100 µM	> 100 µM	> 100 µM	–	–	–	–	–	–	–	–	–	–	–	–	–
COc1ccc(-c2cncn2-c2cc(OC)c(OC)c(OC)c2)cc1F	> 100 µM	–	51.9 µM	> 100 µM	> 49.2 µM	> 100 µM	> 100 µM	> 100 µM	0.0179 µM	> 100 µM	< 0.01 µM	–	6 µM	< 0.0119 µM	< 0.0214 µM	< 0.0172 µM	< 0.0365 µM	0.789 µM	< 0.0291 µM	> 71.6 µM
